Settings: Fluid (supercritical or subcritical phases)

CC(F)(F)CC(F)(F)F [1,1,1,3,3-pentafluorobutane]
Settings | speed of sound [m/s]
320 K, 60148 kPa | 963.25
320 K, 70155 kPa | 1000.1
320 K, 80162 kPa | 1034.6
320 K, 90169 kPa | 1067.1
320 K, 100176 kPa | 1098
320.01 K, 1103.1 kPa | 652.28
340 K, 1105.8 kPa | 578.15
340 K, 2106.4 kPa | 587.65
340 K, 3107 kPa | 596.83
340 K, 4107.5 kPa | 605.73
340 K, 5108.1 kPa | 614.36
340 K, 6109.1 kPa | 622.75
340 K, 7109.7 kPa | 630.92
340 K, 8108.9 kPa | 638.86
340 K, 9109.4 kPa | 646.62
340 K, 10110 kPa | 654.2
340 K, 12611 kPa | 672.43
340 K, 15113 kPa | 689.74
340 K, 17614 kPa | 706.24
340 K, 20116 kPa | 722.03
340 K, 25119 kPa | 751.78
340 K, 30122 kPa | 779.47
340 K, 35124 kPa | 805.42
340 K, 40128 kPa | 829.93
340 K, 45131 kPa | 853.19
340 K, 50135 kPa | 875.34
340 K, 60142 kPa | 916.86
340 K, 70150 kPa | 955.26
340 K, 80157 kPa | 991.12
340 K, 90164 kPa | 1024.8
340 K, 100171 kPa | 1056.7
360 K, 1102.1 kPa | 503.74
360 K, 2102.7 kPa | 515.2
360 K, 3103.3 kPa | 526.14
360 K, 4104 kPa | 536.64
360 K, 5104.8 kPa | 546.73
360 K, 6106.2 kPa | 556.45
360 K, 7106.9 kPa | 565.84
360 K, 8107.7 kPa | 574.94
360 K, 9108.4 kPa | 583.75
360 K, 10109 kPa | 592.32
360 K, 12611 kPa | 612.74
360 K, 15113 kPa | 631.92
360 K, 17615 kPa | 650.07
360 K, 20117 kPa | 667.31
360 K, 25120 kPa | 699.5
360 K, 30124 kPa | 729.19
360 K, 35127 kPa | 756.83
360 K, 40130 kPa | 782.78
360 K, 45134 kPa | 807.28
360 K, 50137 kPa | 830.52
360 K, 60144 kPa | 873.89
360 K, 70151 kPa | 913.8
360 K, 80158 kPa | 950.91
360 K, 90165 kPa | 985.68
360 K, 100172 kPa | 1018.5
379.99 K, 1100.8 kPa | 427.28
379.99 K, 2101.7 kPa | 441.66
379.99 K, 3102.1 kPa | 455.12
379.99 K, 4102.7 kPa | 467.8
379.99 K, 5103.4 kPa | 479.82
379.99 K, 6104.7 kPa | 491.27
379.99 K, 7105.5 kPa | 502.21
379.99 K, 8106.3 kPa | 512.71
379.99 K, 9107.5 kPa | 522.81
379.99 K, 10108 kPa | 532.54
379.99 K, 12610 kPa | 555.5
379.99 K, 15112 kPa | 576.81
379.99 K, 17614 kPa | 596.76
379.99 K, 20116 kPa | 615.56
379.99 K, 25119 kPa | 650.34
379.99 K, 30123 kPa | 682.08
379.99 K, 35126 kPa | 711.42
379.99 K, 40130 kPa | 738.79
379.99 K, 45134 kPa | 764.51
379.99 K, 50137 kPa | 788.83
379.99 K, 60144 kPa | 833.97
379.99 K, 70151 kPa | 875.31
379.99 K, 80158 kPa | 913.6
379.99 K, 90166 kPa | 949.39
379.99 K, 100173 kPa | 983.05
400 K, 1605.2 kPa | 355.52
400 K, 2105.7 kPa | 364.94
400 K, 3106.4 kPa | 382.38
400 K, 4107.2 kPa | 398.31
400 K, 5108.1 kPa | 413.05
400 K, 6107.8 kPa | 426.8
400 K, 7108.6 kPa | 439.76
400 K, 8109.4 kPa | 452.03
400 K, 9110.2 kPa | 463.7
400 K, 10111 kPa | 474.85
400 K, 12613 kPa | 500.78
400 K, 15114 kPa | 524.48
400 K, 17616 kPa | 546.39
400 K, 20118 kPa | 566.86
400 K, 25122 kPa | 604.31
400 K, 30125 kPa | 638.14
400 K, 35128 kPa | 669.16
400 K, 40132 kPa | 697.92
400 K, 45135 kPa | 724.83
400 K, 50138 kPa | 750.16
400 K, 60145 kPa | 796.98
400 K, 70152 kPa | 839.66
400 K, 80159 kPa | 879.05
400 K, 90166 kPa | 915.76
400 K, 100174 kPa | 950.23
419.99 K, 2103.3 kPa | 280.02
419.99 K, 3102.8 kPa | 305.08
419.99 K, 4103.6 kPa | 326.49
419.99 K, 5104.3 kPa | 345.41
419.99 K, 6105 kPa | 362.51
419.99 K, 7105.6 kPa | 378.2
419.99 K, 8106.4 kPa | 392.76
419.99 K, 9107.1 kPa | 406.4
419.99 K, 10108 kPa | 419.26
